Laboratory results published in ChEMBL document CHEMBL1201862, “PubChem BioAssay data set” (2004).
The source made the active and inactive calls. Cut-off read from the data, not from the text of the source, for most assays here: actives have a measured EC50 and inactives only a lower limit.

Key:
[1] = Luminescence Cell-Based Dose Confirmation HTS to Identify Inhibitors of Platelet Dense Granule Release. [Related pubchem assays: 1663 (Primary HTS), 1678 (Summary of Project)]; type: functional
[2] = DRD fibroblast viability loss – cell-based, non-viral oncogenic, luminescence, dose response (AID 1934); type: functional; conditions: Homo sapiens
[3] = tested on: BJ; assay: BJ-TERT fibroblast viability loss – cell-based, RAS-independent, luminescence, dose response (AID 1933); type: functional; conditions: Homo sapiens
[4] = biological target: Luciferin 4-monooxygenase (Photinus pyralis, UniProt P08659); assay: inhibition of purified Photinus pyralis luciferase – biochemical, luminescence, dose response (AID 1891)
Luciferin 4-monooxygenase, sequence (P08659 whole entry): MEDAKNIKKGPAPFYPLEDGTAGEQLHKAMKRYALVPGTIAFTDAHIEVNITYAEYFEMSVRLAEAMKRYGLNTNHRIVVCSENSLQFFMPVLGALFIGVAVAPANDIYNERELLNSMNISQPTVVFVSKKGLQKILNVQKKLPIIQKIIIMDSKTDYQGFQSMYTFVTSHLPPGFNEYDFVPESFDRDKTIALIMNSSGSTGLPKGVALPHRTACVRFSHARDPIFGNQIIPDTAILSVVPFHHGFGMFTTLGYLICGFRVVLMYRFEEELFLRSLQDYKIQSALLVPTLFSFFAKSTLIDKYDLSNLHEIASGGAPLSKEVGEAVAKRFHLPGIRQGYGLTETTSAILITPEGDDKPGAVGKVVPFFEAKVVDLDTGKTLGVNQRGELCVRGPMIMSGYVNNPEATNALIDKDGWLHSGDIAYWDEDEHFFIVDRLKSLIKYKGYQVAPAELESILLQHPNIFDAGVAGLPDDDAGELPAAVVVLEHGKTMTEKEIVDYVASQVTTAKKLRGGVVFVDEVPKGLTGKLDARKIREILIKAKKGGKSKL

[5] = tested on: BJ; assay: BJ-TERT-LT-ST fibroblast viability loss – cell-based, RAS-independent, luminescence, dose response (AID 1935); type: functional; conditions: Homo sapiens;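 note: BJ fibroblasts immortalized with TERT plus LT and ST oncogenes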
[6] = tested on: BJ; assay: cells; type: functional, cell-based; conditions: Homo sapiens
[7] = biological target: T1, Protein skinhead-1 (Caenorhabditis elegans, UniProt P34707); type: functional
T1 sequence (P34707 whole entry): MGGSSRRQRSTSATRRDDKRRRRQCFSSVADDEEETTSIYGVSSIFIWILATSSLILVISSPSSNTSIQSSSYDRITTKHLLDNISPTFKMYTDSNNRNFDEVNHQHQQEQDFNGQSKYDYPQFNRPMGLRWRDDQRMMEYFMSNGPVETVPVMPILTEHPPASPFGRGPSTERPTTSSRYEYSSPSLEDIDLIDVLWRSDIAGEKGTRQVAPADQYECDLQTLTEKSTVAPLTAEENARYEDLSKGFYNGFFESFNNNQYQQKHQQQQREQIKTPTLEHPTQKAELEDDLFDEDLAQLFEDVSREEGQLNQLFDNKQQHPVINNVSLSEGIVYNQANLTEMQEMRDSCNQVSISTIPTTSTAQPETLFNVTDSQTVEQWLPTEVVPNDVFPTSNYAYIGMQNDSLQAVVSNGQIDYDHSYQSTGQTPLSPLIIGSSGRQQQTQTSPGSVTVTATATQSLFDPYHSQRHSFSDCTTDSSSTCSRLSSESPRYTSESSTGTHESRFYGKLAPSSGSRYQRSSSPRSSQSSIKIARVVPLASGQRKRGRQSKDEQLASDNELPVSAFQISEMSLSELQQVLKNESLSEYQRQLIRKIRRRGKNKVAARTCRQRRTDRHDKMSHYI

[8] = cells; type: functional, cell-based
[9] = cells; type: functional, cell-based; remark: listed apart in the source
[10] = tested on: H4; assay: Luminescence Cell-Based Dose Response HTS to Identify Activators of 5'UTR Stem-Loop Driven Prion Protein mRNA Translation in H4 Neuroglioblastoma Cells. [Related pubchem assays: 1829 (Project Summary), 1814 (Primary HTS)]; type: functional; conditions: Homo sapiens
[11] = Luminescence Cell-Based Dose Response HTS to Identify Activators of Luciferase Translation or Activity in H4 […] Cells. [Related pubchem assays: 1829 (Project Summary), 1814 (Primary HTS)]; type: functional
[12] = Luminescence Cell-Based Dose Confirmation HTS to Identify Activators of 5'UTR Stem-Loop Driven Alpha-Synuclein mRNA Translation in H4 Neuroglioblastoma Cells. [Related pubchem assays: 1829 (Project Summary), 1814 (Primary HTS)]; type: functional
[13] = viability of HCT116 lacking mutant beta-catenin – cell-based, human colon tumor, dose response (AID 1045); type: functional;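 note: HCT116 colon tumor cells with beta catenin knocked out; cells exposed to compound for 60 hours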
[14] = viability of PTEN-deleted HCT116 cells – cell-based, HCT116 PTEN knockout, dose response (AID 1047); type: functional;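 note: HCT116 colon tumor cells with PTEN knocked out; cells exposed to compound for 60 hours before readout; potency for loss of cell viability measured by luminescence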
[15] = biological target: T2, Polyadenylate-binding protein 1 (Homo sapiens, UniProt P11940); assay: MLLE binding blockers, Cy5 peptide tracer – biochemical, fluorescence polarization, Cy5-PAM2 peptide, secondary, miRNA deadenylation inhibitor project, dose response (AID 602260); type: functional; conditions: read-out: IC50_Mean
T2 sequence (P11940 whole entry, the tested form may be a part): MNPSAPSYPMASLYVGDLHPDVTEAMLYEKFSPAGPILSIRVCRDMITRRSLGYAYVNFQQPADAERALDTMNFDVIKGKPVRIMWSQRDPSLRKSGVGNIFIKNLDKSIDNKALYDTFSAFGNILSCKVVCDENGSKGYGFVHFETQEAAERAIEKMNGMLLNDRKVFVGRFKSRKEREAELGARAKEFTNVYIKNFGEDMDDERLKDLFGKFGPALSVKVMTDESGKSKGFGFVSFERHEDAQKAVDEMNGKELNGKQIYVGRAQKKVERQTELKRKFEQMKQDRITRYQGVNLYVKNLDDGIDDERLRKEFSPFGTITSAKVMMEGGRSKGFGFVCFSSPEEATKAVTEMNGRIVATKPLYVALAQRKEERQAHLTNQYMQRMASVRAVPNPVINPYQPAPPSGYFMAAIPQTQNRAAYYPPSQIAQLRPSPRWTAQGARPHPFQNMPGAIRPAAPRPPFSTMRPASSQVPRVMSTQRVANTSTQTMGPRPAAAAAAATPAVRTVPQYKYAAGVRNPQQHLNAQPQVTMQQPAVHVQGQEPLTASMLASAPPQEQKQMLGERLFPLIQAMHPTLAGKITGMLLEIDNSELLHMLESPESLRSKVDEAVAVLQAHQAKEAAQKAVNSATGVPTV

[16] = biological target: T2, Polyadenylate-binding protein 1; assay: MLLE domain peptide-binding blockers, IC50 – biochemical, fluorescence polarization, FITC-PAM2 peptide, dose response (AID 602259); type: functional; conditions: read-out: IC50_Mean
[17] = Luminescence Cell-Based Dose Retest to Confirm Inhibitors of Cancer Stem Cells. [Related pubchem assays (depositor defined):AID2717, AID2721]; type: functional; conditions: Homo sapiens
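Throughout, for AC50: cells exposed to compound for roughly 70 hours or longer before luminescence read.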

COc1ccc(C(=O)Nc2ccc(N3CCCC3)cc2)cc1OC
EC50 [1]: 1.03 µM (active) | EC50 [2]: 11.2 µM (active) | EC50 [3]: 14.9 µM (active) | EC50 [4]: 1.45 µM (active) | EC50 [5]: > 150 µM (not active) | EC50 [6]: 12.9 µM (active)

COc1cccc(C(=O)N/N=C/c2c[nH]nc2-c2ccc(OC)cc2OC)c1
EC50 [1]: > 112 µM (not active) | EC50 [4]: > 112 µM (not active)

C(=C1c2ccccc2-c2ccccc21)c1ccccn1
IC50 [7]: 59.4 µM (inactive)

O=C(NCc1ccco1)c1cc(-c2cccs2)on1
EC50 [8]: > 350 µM (not active) | EC50 [9]: 150 µM (active)

CC(=O)NC(CCS(C)(=O)=O)C(=O)Nc1cc(C)on1 (stereo not given)
EC50 [1]: > 112 µM (not active) | EC50 [4]: > 112 µM (not active)

O=C(CC1SC(N2CCCC2)=NC1=O)Nc1ccc(C(=O)Nc2ncccc2O)cc1 (stereo not given)
EC50 [8]: > 350 µM (not active) | EC50 [9]: 40.5 µM (active) | EC50 [10]: 12.3 µM (active) | EC50 [11]: 11.1 µM (active) | EC50 [12]: 16.5 µM (active)

CCc1ccc2nc(O)c(CN(Cc3nnnn3C3CCCC3)C3CCCCC3)cc2c1
EC50 [10]: > 120 µM (not active) | EC50 [11]: > 120 µM (not active) | EC50 [13]: 19.7 µM (active) | EC50 [12]: > 120 µM (not active) | EC50 [14]: 18.8 µM (active)

O=C(Cc1cccc2ccccc12)NC(NC(=S)Nc1ccccc1Cl)C(Cl)(Cl)Cl (stereo not given)
IC50 [15]: > 66 µM (inactive) | IC50 [16]: > 66 µM (inactive) | EC50 [13]: 16.7 µM (active) | EC50 [14]: 15.2 µM (active)

CCOC(=O)C1=C(C)N(c2ccc(C)cc2)C(=O)/C1=C\c1ccc(O)c(OC)c1
EC50 [1]: > 112 µM (not active) | EC50 [4]: > 112 µM (not active)

FC(F)(F)c1cc(-c2ccccc2)nc(NC2CCCC2)n1
IC50 [7]: > 100 µM (inactive)

O=c1c2ccccc2oc2ccc(C#CC3(O)CCCCC3)cc12
AC50 [17]: 6.5 µM (active)

CCOC(=O)c1ccc(NC(=O)c2cccc(S(=O)(=O)N3CCOCC3)c2)cc1
EC50 [13]: 22 µM (active) | EC50 [14]: 30.4 µM (active)

CSc1cccc(NC(=O)c2cc(S(=O)(=O)N3CCCC3)cn2C)c1
EC50 [1]: > 112 µM (not active) | EC50 [4]: > 112 µM (not active)

O=C(CCCOc1ccc(Cl)cc1Cl)N/N=C/c1ccccc1O
EC50 [8]: > 350 µM (not active) | EC50 [9]: 11.8 µM (active)

COc1ccccc1C(c1nnnn1CC1CCCO1)N1CCC(C(N)=O)CC1 (stereo not given)
EC50 [8]: > 350 µM (not active) | EC50 [9]: > 350 µM (not active)

Clc1ccc2oc(-c3ccccn3)nc2c1
IC50 [7]: 35.9 µM (active)
